What all share (type): functional, cell-free
The nature of experiment [1]: Antioxidant activity against Cu2+-induced lipid peroxidation in human plasma LDL assessed as lysophosphatidylcholine formation at 5 umol/L preincubated for 1 hr before Cu2+ challenge measured after 60 mins.
A short description of experiment [2]: Antioxidant activity against Cu2+-induced lipid peroxidation in human plasma LDL assessed as maximal compound concentration at 10 umol/L preincubated for 1 hr before Cu2+ challenge measured after 270 mins relative to compound present at 0 min.
The nature of experiment [3]: Antioxidant activity against Cu2+-induced lipid peroxidation in human plasma LDL assessed as lysophosphatidylcholine formation at 10 umol/L preincubated for 1 hr before Cu2+ challenge measured after 270 mins.
A short description of experiment [4]: Antioxidant activity against Cu2+-induced lipid peroxidation in human plasma LDL assessed as conjugated diene formation at 20 umol/L preincubated for 1 hr before Cu2+ challenge measured after 180 mins.
The nature of experiment [5]: Antioxidant activity against Cu2+-induced lipid peroxidation in human plasma LDL assessed as lysophosphatidylcholine formation at 20 umol/L preincubated for 1 hr before Cu2+ challenge measured after 210 mins.
Experiment [6] can be described thus: Antioxidant activity against Cu2+-induced lipid peroxidation in human plasma LDL assessed as maximal compound concentration at 20 umol/L preincubated for 1 hr before Cu2+ challenge measured after 150 mins relative to compound present at 0 min.
Experiment [7] is described as follows: Antioxidant activity against Cu2+-induced lipid peroxidation in human plasma LDL assessed as vitamin E consumption at 5 umol/L preincubated for 1 hr before Cu2+ challenge measured after 270 mins.
Experiment [8] in a line: Antioxidant activity against Cu2+-induced lipid peroxidation in human plasma LDL assessed as conjugated diene formation at 10 umol/L preincubated for 1 hr before Cu2+ challenge measured after 210 mins.
Experiment [9] is described as follows: Antioxidant activity against Cu2+-induced lipid peroxidation in human plasma LDL assessed as conjugated diene formation at 10 umol/L preincubated for 1 hr before Cu2+ challenge measured after 270 mins.

The record followed here is ChEMBL document CHEMBL1137802, “Specific antioxidant activity of caffeoyl derivatives and other natural phenolic compounds: LDL protection against oxidation and decrease in the proinflammatory lysophosphatidylcholine production” (J Nat Prod, 2001).

SMILES strings stand for the structures.

`CC(C)(Sc1cc(C(C)(C)C)c(O)c(C(C)(C)C)c1)Sc1cc(C(C)(C)C)c(O)c(C(C)(C)C)c1`: the Activity in experiment [1] is 2.5%; in [2], 15.8%; in [3] it was 12.9%; in experiment [4] it was 2.6%; in experiment [5], 1.4%; in experiment [6] it was 41.2%. Besides, the values for the Activity in [7], in [8] and in experiment [9] were 0%, 76.3% and 79.9%, respectively.
